Measured values published in ChEMBL document CHEMBL4613209, “Quinolone hybrids and their anti-cancer activities: An overview” (Eur J Med Chem, 2019).

How the values were obtained:
Assay type in all cases: functional, cell-based
L1210 [1] = assay: Cytotoxicity against mouse L1210 cells assessed as reduction in cell viability
CHO = assay: Cytotoxicity against CHO cells assessed as reduction in cell viability; conditions: Cricetulus griseus
HL-60 [2] = assay: Cytotoxicity against human HL60 cells assessed as reduction in cell viability
Hep 3B2 = assay: Antiproliferative activity against human Hep3B cells after 24 to 72 hrs by MTT assay
SMMC-7721 = assay: Antiproliferative activity against human SMMC7721 cells after 24 to 72 hrs by MTT assay
L1210 [3] = assay: Antiproliferative activity against mouse L1210 cells after 24 to 72 hrs by MTT assay
HL-60 [4] = assay: Antiproliferative activity against human HL60 cells after 24 to 72 hrs by MTT assay

IC50 (SMMC-7721) | IC50 (L1210 [3]) | IC50 (HL-60 [4]) | SMILES | IC50 (L1210 [1]) | IC50 (CHO) | IC50 (HL-60 [2]) | IC50 (Hep 3B2)
 |  |  | COc1ccc(/C=N/NC(=O)c2cn(C3CC3)c3cc(N/N=C/c4ccc(OC)cc4)c(F)cc3c2=O)cc1 | 1.5 to 23.5 µM | 1.5 to 23.5 µM | 1.5 to 23.5 µM | 
 |  |  | C[C@H]1COc2c(N3CCN(C)CC3)c(F)cc3c(=O)c(-c4nnc(-c5cn(C6CC6)c6cc(N7CCN(C)CC7)c(F)cc6c5=O)o4)cn1c23 | 0.26 to 14.5 µM | 0.26 to 14.5 µM | 0.26 to 14.5 µM | 
 |  |  | COc1cc(/C=N/NC(=O)c2cn(C3CC3)c3cc(N/N=C/c4cc(OC)c(OC)c(OC)c4)c(F)cc3c2=O)cc(OC)c1OC | 1.5 to 23.5 µM | 1.5 to 23.5 µM | 1.5 to 23.5 µM | 
 |  |  | CN1CCN(c2cc3c(cc2F)c(=O)c(-c2nn4c(-c5cn(C6CC6)c6cc(N7CCNCC7)c(F)cc6c5=O)nnc4s2)cn3C2CC2)CC1 | 0.12 to 5.2 µM | 0.12 to 5.2 µM | 0.12 to 5.2 µM | 
 |  |  | O=C(N/N=C/c1ccc(Cl)cc1)c1cn(C2CC2)c2cc(N/N=C/c3ccc(Cl)cc3)c(F)cc2c1=O | 1.5 to 23.5 µM | 1.5 to 23.5 µM | 1.5 to 23.5 µM | 
 |  |  | COc1cc(/C=N/NC(=O)c2cn(C3CC3)c3cc(N/N=C/c4ccc(O)c(OC)c4)c(F)cc3c2=O)ccc1O | 1.5 to 2.8 µM | 1.5 to 2.8 µM | 1.5 to 2.8 µM | 
 |  |  | O=c1c(-c2nnc(-c3cn(C4CC4)c4cc(N5CCNCC5)c(F)cc4c3=O)o2)cn(C2CC2)c2cc(N3CCNCC3)c(F)cc12 | 0.26 to 14.5 µM | 0.26 to 14.5 µM | 0.26 to 14.5 µM | 
 |  |  | CCN1CCN(c2cc3c(cc2F)c(=O)c(-c2nnc4sc(-c5cn6c7c(c(N8CCN(C)CC8)c(F)cc7c5=O)OC[C@@H]6C)nn24)cn3C2CC2)CC1 | 0.12 to 5.2 µM | 0.12 to 5.2 µM | 0.12 to 5.2 µM | 
 |  |  | CCN1CCN(c2cc3c(nc2F)c(=O)c(-c2nn4c(-c5cn(C6CC6)c6cc(N7CCN(C)CC7)c(F)cc6c5=O)nnc4s2)cn3C2CC2)CC1 | 0.12 to 5.2 µM | 0.12 to 5.2 µM | 0.12 to 5.2 µM | 
 |  |  | CC1COc2c(N3CCN(C)CC3)c(F)cc3c(=O)c(-c4nnc(-c5cn(C6CC6)c6cc(N7CCN(C)CC7)c(F)cc6c5=O)o4)cn1c23 (stereo unspecified) | 0.26 to 14.5 µM | 0.26 to 14.5 µM | 0.26 to 14.5 µM | 
1.4 to 52.3 µM | 1.4 to 52.3 µM | 1.4 to 52.3 µM | CCn1cc(C(=O)N/N=C/c2ccc(F)cc2)c(=O)c2cc(F)c(N3CCNCC3)cc21 |  |  |  | 1.4 to 52.3 µM
 |  |  | CN1CCN(c2cc3c(cc2F)c(=O)c(-c2nnc4sc(-c5cn(C6CC6)c6nc(N7CCN(C)CC7)c(F)cc6c5=O)nn24)cn3C2CC2)CC1 | 0.12 to 5.2 µM | 0.12 to 5.2 µM | 0.12 to 5.2 µM | 
1.4 to 52.3 µM | 1.4 to 52.3 µM | 1.4 to 52.3 µM | CC1COc2c(N3CCN(C)CC3)c(F)cc3c(=O)c(-c4nnc(SCC(=O)N/N=C/c5ccc([N+](=O)[O-])c6c5OCO6)[nH]4)cn1c23 (stereo unspecified) |  |  |  | 1.4 to 52.3 µM
1.4 to 52.3 µM | 1.4 to 52.3 µM | 1.4 to 52.3 µM | CCn1cc(-c2nnc(SCC(=O)N/N=C/c3ccc(C(=O)O)cc3)o2)c(=O)c2cc(F)c(N3CCN(C)CC3)cc21 |  |  |  | 1.4 to 52.3 µM
 |  |  | C[C@H]1COc2c(N3CCN(C)CC3)c(F)cc3c(=O)c(-c4nn5c(-c6cn(C7CC7)c7cc(N8CCNCC8)c(F)cc7c6=O)nnc5s4)cn1c23 | 0.12 to 5.2 µM | 0.12 to 5.2 µM | 0.12 to 5.2 µM | 
1.4 to 52.3 µM | 1.4 to 52.3 µM | 1.4 to 52.3 µM | CCn1cc(C(=O)N/N=C/c2ccc(Cl)cc2)c(=O)c2cc(F)c(N3CCNCC3)cc21 |  |  |  | 1.4 to 52.3 µM
 |  |  | CCN1CCN(c2cc3c(cc2F)c(=O)c(-c2nn4c(-c5cn(C6CC6)c6cc(N7CCN(C)CC7)c(F)cc6c5=O)nnc4s2)nn3C2CC2)CC1 | 0.12 to 5.2 µM | 0.12 to 5.2 µM | 0.12 to 5.2 µM | 
 |  |  | O=c1c(-c2nn3c(-c4cn(C5CC5)c5cc(N6CCNCC6)c(F)cc5c4=O)nnc3s2)cn(C2CC2)c2cc(N3CCNCC3)c(F)cc12 | 0.12 to 5.2 µM | 0.12 to 5.2 µM | 0.12 to 5.2 µM | 
1.4 to 52.3 µM | 1.4 to 52.3 µM | 1.4 to 52.3 µM | CC1COc2c(N3CCN(C)CC3)c(F)cc3c(=O)c(-c4nnc(N/N=C/c5ccccc5)[nH]4)cn1c23 (stereo unspecified) |  |  |  | 1.4 to 52.3 µM
 |  |  | O=C(N/N=C/c1ccc([N+](=O)[O-])cc1)c1cn(C2CC2)c2cc(N/N=C/c3ccc([N+](=O)[O-])cc3)c(F)cc2c1=O | 1.5 to 23.5 µM | 1.5 to 23.5 µM | 1.5 to 23.5 µM | 
1.4 to 52.3 µM | 1.4 to 52.3 µM | 1.4 to 52.3 µM | CCn1cc(-c2nnc(SCC(=O)N/N=C/c3ccc(C)cc3)o2)c(=O)c2cc(F)c(N3CCN(C)CC3)cc21 |  |  |  | 1.4 to 52.3 µM
1.4 to 52.3 µM | 1.4 to 52.3 µM | 1.4 to 52.3 µM | CCn1cc(-c2nnc(SCC(=O)N/N=C/c3ccccc3C(=O)O)o2)c(=O)c2cc(F)c(N3CCN(C)CC3)cc21 |  |  |  | 1.4 to 52.3 µM
1.4 to 52.3 µM | 1.4 to 52.3 µM | 1.4 to 52.3 µM | CCn1cc(-c2nnc(SCC(=O)N/N=C/c3ccc(OC)cc3)o2)c(=O)c2cc(F)c(N3CCN(C)CC3)cc21 |  |  |  | 1.4 to 52.3 µM
1.4 to 52.3 µM | 1.4 to 52.3 µM | 1.4 to 52.3 µM | COc1ccc(/C=N/Nc2nnc(-c3cn4c5c(c(N6CCN(C)CC6)c(F)cc5c3=O)OCC4C)[nH]2)cc1 (stereo unspecified) |  |  |  | 1.4 to 52.3 µM
